In publication PMC7999182, “Interaction of Remdesivir with Clinically Relevant Hepatic Drug Uptake Transporters” (Pharmaceutics, 2021):

What was measured:
OCT1 [1] = molecular target: T1, OCT1 (Homo sapiens, UniProt O15245); assay: Inhibition of OCT1-mediated metformin uptake; type: cell-based
T1 construct: expressed in transfected cells
T1 sequence (O15245 1-554): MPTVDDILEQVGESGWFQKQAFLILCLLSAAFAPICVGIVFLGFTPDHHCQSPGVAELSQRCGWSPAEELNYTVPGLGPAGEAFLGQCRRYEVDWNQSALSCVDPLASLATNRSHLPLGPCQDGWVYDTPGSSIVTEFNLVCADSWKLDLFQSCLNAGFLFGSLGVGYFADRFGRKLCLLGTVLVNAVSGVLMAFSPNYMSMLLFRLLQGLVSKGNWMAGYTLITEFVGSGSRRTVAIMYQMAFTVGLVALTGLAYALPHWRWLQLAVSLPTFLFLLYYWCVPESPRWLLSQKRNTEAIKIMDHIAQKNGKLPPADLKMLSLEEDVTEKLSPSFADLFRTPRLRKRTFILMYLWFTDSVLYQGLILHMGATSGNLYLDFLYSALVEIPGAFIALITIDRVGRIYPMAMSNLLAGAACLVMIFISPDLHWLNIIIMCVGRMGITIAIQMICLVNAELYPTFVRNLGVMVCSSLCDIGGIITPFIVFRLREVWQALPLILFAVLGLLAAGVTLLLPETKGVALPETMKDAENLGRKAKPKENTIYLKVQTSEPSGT
Excerpt: (§1) Generation, cultivation and characterization of human embryonic kidney (HEK) cells stably expressing OATP1B1 refseq (=OATP1B1*1a), OATP1B1*1b, OATP1B1*5 and OATP1B1*15 [18], OATP1B3 [19], OATP2B1 [13] and OCT1 [20] have been described previously. OATP1B1 cells were cultivated in minimal essential medium (Life Technologies, Paisley, UK) and OATP1B3, OATP2B1 and OCT1 cells were cultivated in Dulbecco’s modified Eagle medium (Sigma, Darmstadt, Germany). Cultivation media were supplemented with 10% fetal calf serum, 100 U/mL penicillin and 100 µg/mL streptomycin. Cells were grown at 37 °C and 5% CO2. Functionality of the cells was confirmed by measuring uptake of prototypic substrates (see Section 2.3 and supplementary material).
Prototypic substrate uptake was performed as described previously. For this, uptake solutions contained the respective substrate with tracer amounts of radiolabeled substrate. In case of inhibition studies, uptake solutions additionally contained different concentrations of remdesivir. […] Cells were then lysed with 0.2% sodium dodecyl sulfate and intracellular radioactivity was measured by liquid scintillation counting (Tricarb2800, PerkinElmer Life Sciences GmbH, Rodgau, Germany or Hidex 300SL TDCR liquid scintillation counter, Turku, Finland). […]

OCT1 [2] = molecular target: T1, OCT1; assay: Remdesivir uptake into HEK cells stably expressing OCT1 vs vector control; type: in vitro ADME; conditions: 5 µM remdesivir, 10 min, transporter-expressing vs control HEK cells
Excerpt: as §1
Uptake assays were conducted at 37 °C according to previously described methods. For this, cells were seeded in 24-well plates (320,000 cells/well) and cultured for 2 days. Cells were then incubated for a further 24 h in culture medium with 5 mM butyrate (OATP1B3, OATP2B1, OCT1) or 10 mM butyrate (OATP1B1) to increase protein levels of recombinant transporters. […]
Remdesivir was determined by UHPLC-MS-MS analysis on an Agilent 1290 infinity UHPLC system coupled to an Agilent 6495B triple quadrupole mass spectrometer (Agilent, Waldbronn, Germany) similar to a recently published method. […]

With `CCC(CC)COC(=O)[C@H](C)N[P@](=O)(OC[C@H]1O[C@@](C#N)(c2ccc3c(N)ncnn23)[C@H](O)[C@@H]1O)Oc1ccccc1` [Remdesivir] the “Effect on prototypic substrate uptake” value (OCT1 [1]; 5 µM metformin, 5 min uptake, different remdesivir concentrations) was “significant concentration-dependent inhibitory effect”, the “Transporter inhibition at 10 µM” value (OCT1 [1]; 10 µM remdesivir, metformin as substrate) was “inhibition” and the Remdesivir uptake ratio (OCT1 [2]) was 1.2.
